{"source": "patent US12295936B2", "about": "“Immunomodulating urea azalides” (Zoetis Services LLC, priority 2020, dated 2025)", "key": {"[1]": {"tested_on": "P. multocida", "assay": "Murine P. multocida intranasal challenge study with lung tissue RNA sequence analysis", "format": "in vivo, mice", "conditions": "subcutaneous 18 hours after challenge (5×10^3 CFU/mouse): tulathromycin 16 mg/kg, M9 32 mg/kg, ceftiofur 9 mg/kg; placebo 0%", "procedure": "In one murine P. multocida intranasal challenge study, mice were administered tulathromycin (16 mg/kg; T02), M9 (32 mg/kg; T03), or ceftiofur (9 mg/kg; T04) by subcutaneous injection 18 hours after bacterial challenge (5×10^3 CFU/mouse) for lung tissue RNA sequence analysis. Survival at Day 7 was about 80%, 50%, and 90% for T02, T03, and T04, respectively, compared to placebo at 0%. Differential gene expression from total lung tissue RNA sequence analysis indicated at least 226 unique genes were up or down regulated (with significance) for T03. Output from ingenuity pathway analysis of these unique genes predicted major upstream regulators of the involved pathways. Data was analyzed based on the number of genes being modulated in the same direction that were associated with a given upstream regulator. An activation z-score of 2 or greater is considered significant and the direction change is indicated by +(activated) or − (inhibited). The top 5 pathways included: IL-9 signaling, glucocorticoid receptor signaling, prolactin signaling, JAK STAT signaling, and IL-17 signaling. The top 6 upstream regulators (activation z-score) included: lipopolysaccharide (−6.725), TNF (−4.669), IFNG (−5.759), IL-1β (−5.947), STAT1 (−2.787), and poly rl:rC-RNA (−5.289). Even though this study was run in the murine model, the top upstream regulators identified as being modulated by M9 include an almost ubiquitous overlap with the pathways identified in the natural disease study as being key mediators in BRD, and therefore is modulating highly relevant pathways in BRD pathobiology."}, "[2]": {"tested_on": "M. haemolytica", "assay": "In-vitro MIC model (CLSI broth micro-dilution)"}, "[3]": {"tested_on": "P. multocida", "assay": "In-vitro MIC model (CLSI broth micro-dilution)"}, "[4]": {"tested_on": "E. coli", "assay": "In-vitro MIC model (CLSI broth micro-dilution)", "conditions": "Escherichia coli, ATCC25922, read-out: Comparative MIC's, E. coli ATCC 25922"}, "[5]": {"tested_on": "IL-6", "assay": "Plasma IL-6 biomarker in bovine M. haemolytica challenge", "conditions": "bovine, in vivo"}, "[6]": {"tested_on": "H. somni", "assay": "In-vitro MIC model (CLSI broth micro-dilution)"}, "[7]": {"conditions": "M. haemolytica (116) lung isolates at necropsy, natural BRD study"}, "[8]": {"conditions": "P. multocida (33) lung isolates at necropsy, natural BRD study"}, "[9]": {"conditions": "H. somni (25) lung isolates at necropsy, natural BRD study"}}, "note": "Where two headings read alike, the source gives them in different places.", "data": [{"smiles": "CCCNC[C@]1(O)[C@H](C)O[C@@H](O[C@H]2[C@H](C)[C@@H](O[C@@H]3O[C@H](C)C[C@H](N(C)C)[C@H]3O)[C@](C)(O)C[C@@H](C)CN[C@H](C)[C@@H](O)[C@](C)(O)[C@@H](CC)OC(=O)[C@@H]2C)C[C@@]1(C)OC", "note": "[Tulathromycin, (2R,3S,4R,5R,8R,10R,11R,12S,13S,14R)-11-(((2S,3R,4S,6R)-4-(dimethylamino)-3-hydroxy-6-methyltetrahydro-2H-pyran-2-yl)oxy)-2-ethyl-3,4,10-trihydroxy-13-(((2R,4R,5S,6S)-5-hydroxy-4-methoxy-4,6-dimethyl-5-((propylamino)methyl)tetrahydro-2H-pyran-2-yl)oxy)-3,5,8,10,12,14-hexamethyl-1-oxa-6-azacyclopentadecan-15-one]", "values": [{"measurement": "Survival at Day 7", "setting": "[1]", "value": "about 80%"}, {"measurement": "MIC", "setting": "[2]; Mannheimia haemolytica, ATCC33396, read-out: Comparative MIC's, M. haemolytica ATCC 33396", "value": 1, "unit": "µg/mL"}, {"measurement": "MIC", "setting": "[2]; Mannheimia haemolytica, read-out: Comparative MIC's, M. haemolytica 12726", "value": 2, "unit": "µg/mL"}, {"measurement": "MIC", "setting": "[2]; Mannheimia haemolytica, read-out: Comparative MIC's, M. haemolytica 46571*", "value": 1, "unit": "µg/mL"}, {"measurement": "MIC", "setting": "[3]; Pasteurella multocida, ATCC43137, read-out: Comparative MIC's, P. multocida ATCC 43137", "value": 1, "unit": "µg/mL"}, {"measurement": "MIC", "setting": "[4]", "value": 2, "unit": "µg/mL"}, {"measurement": "IL-6 levels (plasma) in bovine M. haemolytica challenge", "setting": "[5]", "value": "significantly reduced"}]}, {"smiles": "CCCN1C[C@H](C)[C@@H](O)[C@](C)(O)[C@@H](CC)OC(=O)[C@H](C)[C@@H](O[C@H]2C[C@@](C)(OC)[C@@H](O)[C@H](C)O2)[C@H](C)[C@@H](O[C@@H]2O[C@H](C)C[C@H](N(C)C)[C@H]2O)[C@](C)(O)C[C@H]1C", "note": "[gamithromycin (Zactran)]", "values": [{"measurement": "MIC50", "setting": "[2]; [7]", "value": 1, "unit": "µg/mL"}, {"measurement": "MIC90", "setting": "[2]; [7]", "value": ">64", "unit": "µg/mL"}, {"measurement": "MIC50", "setting": "[3]; [8]", "value": 1, "unit": "µg/mL"}, {"measurement": "MIC90", "setting": "[3]; [8]", "value": ">64", "unit": "µg/mL"}, {"measurement": "MIC50", "setting": "[6]; [9]", "value": 0.25, "unit": "µg/mL"}, {"measurement": "MIC90", "setting": "[6]; [9]", "value": 2, "unit": "µg/mL"}, {"measurement": "MIC Range", "setting": "[6]; [9]", "value": "0.12 to 2", "unit": "µg/mL"}]}, {"smiles": "CCCN1C[C@H](C)[C@@H](O)[C@](C)(O)[C@@H](CC)OC(=O)[C@H](C)[C@@H](O[C@H]2C[C@@](C)(OC)[C@@H](O)[C@H](C)O2)[C@H](C)[C@@H](O[C@@H]2O[C@H](C)C[C@H](N(C)C)[C@H]2O)[C@](C)(O)C[C@H]1C", "note": "[gamithromycin]", "values": [{"measurement": "MIC", "setting": "[2]; 25 different strains of M. haemolytica", "value": "0.5 to 1", "unit": "µg/mL"}, {"measurement": "MIC", "setting": "[3]; 25 different strains of P. multocida", "value": "1 to 2", "unit": "µg/mL"}, {"measurement": "MIC", "setting": "[6]; H. somni (31 strains)", "value": "0.25 to 8", "unit": "µg/mL"}]}]}
